Results: US20250243189A1, “HERBICIDAL IMIDAZOLE-CONTAINING COMPOUNDS” (SYNGENTA CROP PROTECTION AG, priority 2022, published 2025)

Tests used:
Type in all cases: in vivo
Settings in all cases: 250 g/ha, evaluated after 13 days, five-point scale
AMAPA [1] = assay: Post-emergence herbicidal glasshouse test
Description: [Worded in the source for another organism; this organism is reported under the same test.] (§1) Seeds of a variety of test species are sown in standard soil in pots Amaranthus retoflexus (AMARE), Echinochloa crus-galli (ECHCG), Setaria faberi (SETFA)). After cultivation for one day (pre-emergence) or after 8 days cultivation (post-emergence) under controlled conditions in a glasshouse (at 24/16° C., day/night; 14 hours light; 65% humidity), the plants are sprayed with an aqueous spray solution derived from the formulation of the technical active ingredient in acetone/water (50:50) solution containing 0.5% Tween 20 (polyoxyethelyene sorbitan monolaurate, CAS RN 9005-64-5). Compounds are applied at 250 g/ha unless otherwise stated. The test plants are then grown in a glasshouse under controlled conditions in a glasshouse (at 24/16° C., day/night; 14 hours light; 65% humidity) and watered twice daily. After 13 days for pre and post-emergence, the test is evaluated for the percentage damage caused to the plant. The biological activities are shown in the following table on a five-point scale (5=81-100%; 4=61-80%; 3=41-60%; 2=21-40%; 1=0-20%).

[2] = system: Amaranthus retoflexus (AMARE); assay: Post-emergence herbicidal glasshouse test
Description: as §1

[3] = system: Echinochloa crus-galli (ECHCG); assay: Post-emergence herbicidal glasshouse test
Description: as §1

IPOHE [4] = assay: Post-emergence herbicidal glasshouse test
Description: as §1

Setaria faberi (SETFA) [5] = assay: Post-emergence herbicidal glasshouse test
Description: as §1

AMAPA [6] = assay: Pre-emergence herbicidal glasshouse test
Description: [Worded in the source for another organism; this organism is reported under the same test.] as §1

[7] = system: Amaranthus retoflexus (AMARE); assay: Pre-emergence herbicidal glasshouse test
Description: as §1

[8] = system: Echinochloa crus-galli (ECHCG); assay: Pre-emergence herbicidal glasshouse test
Description: as §1

IPOHE [9] = assay: Pre-emergence herbicidal glasshouse test
Description: as §1

Setaria faberi (SETFA) [10] = assay: Pre-emergence herbicidal glasshouse test
Description: as §1

Structure (SMILES) | percentage damage caused to the plant, AMAPA (AMAPA [1]) | percentage damage caused to the plant, AMARE [2] | percentage damage caused to the plant, ECHCG [3] | percentage damage caused to the plant, IPOHE (IPOHE [4]) | percentage damage caused to the plant, SETFA (Setaria faberi (SETFA) [5]) | percentage damage caused to the plant, AMAPA (AMAPA [6]) | percentage damage caused to the plant, AMARE [7] | percentage damage caused to the plant, ECHCG [8] | percentage damage caused to the plant, IPOHE (IPOHE [9]) | percentage damage caused to the plant, SETFA (Setaria faberi (SETFA) [10])
FC(F)(F)c1cn(Cc2ncc(Cl)cn2)c(-c2ccsc2)n1 [Compound 1.030] | 5 (5=81-100%) | 5 (5=81-100%) | 4 (4=61-80%) | 4 (4=61-80%) | 5 (5=81-100%) | 5 (5=81-100%) | 5 (5=81-100%) | 5 (5=81-100%) | 4 (4=61-80%) | 5 (5=81-100%)
FC(F)(F)c1cn(Cc2ncc(Cl)cn2)c(-c2ccc(Br)s2)n1 [Compound 1.069] | 5 (5=81-100%) | 5 (5=81-100%) | 5 (5=81-100%) | 4 (4=61-80%) | 5 (5=81-100%) | 5 (5=81-100%) | 5 (5=81-100%) | 5 (5=81-100%) | 5 (5=81-100%) | 5 (5=81-100%)
Cc1csc(-c2nc(C(F)(F)F)cn2Cc2ncc(Cl)cn2)c1 [Compound 1.029] | 5 (5=81-100%) | 5 (5=81-100%) | 4 (4=61-80%) | 2 (2=21-40%) | 4 (4=61-80%) | 5 (5=81-100%) | 5 (5=81-100%) | 5 (5=81-100%) | 1 (1=0-20%) | 5 (5=81-100%)
FC(F)(F)c1cn(Cc2ncc(Cl)cn2)c(-c2cnc(Cl)s2)n1 [Compound 1.008] | 5 (5=81-100%) | 5 (5=81-100%) | 5 (5=81-100%) | 4 (4=61-80%) | 5 (5=81-100%) | 5 (5=81-100%) | 5 (5=81-100%) | 5 (5=81-100%) | 5 (5=81-100%) | 5 (5=81-100%)
Cc1cc(-c2nc(C(F)(F)F)cn2Cc2ncc(Cl)cn2)n(C)n1 [Compound 1.024] | 5 (5=81-100%) | 5 (5=81-100%) | 5 (5=81-100%) | 5 (5=81-100%) | 5 (5=81-100%) | 5 (5=81-100%) | 5 (5=81-100%) | 5 (5=81-100%) | 5 (5=81-100%) | 5 (5=81-100%)
FC(F)(F)c1cn(Cc2ncc(Cl)cn2)c(-c2ccns2)n1 [Compound 1.033] | 5 (5=81-100%) | 5 (5=81-100%) | 5 (5=81-100%) | 4 (4=61-80%) | 5 (5=81-100%) | 5 (5=81-100%) | 5 (5=81-100%) | 5 (5=81-100%) | 5 (5=81-100%) | 5 (5=81-100%)
FC(F)(F)c1cn(Cc2ncc(Cl)cn2)c(-c2ccc(Cl)s2)n1 [Compound 1.001, 5-chloro-2-[[2-(5-chloro-2-thienyl)-4-(trifluoromethyl)imidazol-1-yl]methyl]pyrimidine] | 5 (5=81-100%) | 5 (5=81-100%) | 5 (5=81-100%) | 4 (4=61-80%) | 5 (5=81-100%) | 5 (5=81-100%) | 5 (5=81-100%) | 5 (5=81-100%) | 5 (5=81-100%) | 5 (5=81-100%)
Cc1c(-c2nc(C(F)(F)F)cn2Cc2ncc(Cl)cn2)cnn1C [Compound 1.012, 5-chloro-2-[[2-(1,5-dimethylpyrazol-4-yl)-4-(trifluoromethyl)imidazol-1-yl]methyl]pyrimidine] | 3 (3=41-60%) | 2 (2=21-40%) | 1 (1=0-20%) | 3 (3=41-60%) | 1 (1=0-20%) | 5 (5=81-100%) | 3 (3=41-60%) | 1 (1=0-20%) | 5 (5=81-100%) | 1 (1=0-20%)
Cc1sccc1-c1nc(C(F)(F)F)cn1Cc1ncc(Cl)cn1 [Compound 1.035] | 4 (4=61-80%) | 5 (5=81-100%) | 5 (5=81-100%) | 4 (4=61-80%) | 5 (5=81-100%) | 5 (5=81-100%) | 5 (5=81-100%) | 5 (5=81-100%) | 4 (4=61-80%) | 5 (5=81-100%)
FC(F)(F)c1cn(Cc2ncc(Cl)cn2)c(-c2ccsc2Cl)n1 [Compound 1.025] | 3 (3=41-60%) | 4 (4=61-80%) | 4 (4=61-80%) | 3 (3=41-60%) | 4 (4=61-80%) | 5 (5=81-100%) | 5 (5=81-100%) | 5 (5=81-100%) | 4 (4=61-80%) | 5 (5=81-100%)
FC(F)(F)c1cn(Cc2ncc(Cl)cn2)c(-n2ccc(Cl)n2)n1 [Compound 1.066] | 3 (3=41-60%) | 4 (4=61-80%) | 1 (1=0-20%) | 4 (4=61-80%) | 1 (1=0-20%) | 5 (5=81-100%) | 5 (5=81-100%) | 1 (1=0-20%) | 4 (4=61-80%) | 2 (2=21-40%)
Cn1cc(-c2nc(C(F)(F)F)cn2Cc2ncc(Cl)cn2)cn1 [Compound 1.014] | 3 (3=41-60%) | 3 (3=41-60%) | 2 (2=21-40%) | 3 (3=41-60%) | 2 (2=21-40%) | 5 (5=81-100%) | 4 (4=61-80%) | 4 (4=61-80%) | 5 (5=81-100%) | 4 (4=61-80%)
FC(F)(F)c1cn(Cc2ncc(Cl)cn2)c(-c2cc(Cl)sc2Cl)n1 [Compound 1.037] | 3 (3=41-60%) | 4 (4=61-80%) | 3 (3=41-60%) | 3 (3=41-60%) | 3 (3=41-60%) | 5 (5=81-100%) | 5 (5=81-100%) | 4 (4=61-80%) | 5 (5=81-100%) | 4 (4=61-80%)
Cn1ccnc1-c1nc(C(F)(F)F)cn1Cc1ncc(Cl)cn1 [Compound 1.006] | 1 (1=0-20%) | 1 (1=0-20%) | 1 (1=0-20%) | 1 (1=0-20%) | 1 (1=0-20%) | 1 (1=0-20%) | 1 (1=0-20%) | 1 (1=0-20%) | 1 (1=0-20%) | 1 (1=0-20%)
